Laboratory results from US20240156846A1, “COMPOSITIONS AND METHODS FOR TREATING NEURODEGENERATIVE DISORDERS” (Arizona Board of Regents on Behalf of the University of …, priority 2020, published 2024).
Entries after “also recorded” stand apart in the source; their conditions may differ.

Tests used:
[1] = tested on: myrosinase; conditions: cited from earlier work
[2] = tested on: primary cultures of human neurons exposed to Aβ1-42 aggregates; test: Prevention of neuronal loss caused by Aβ1-42 aggregates (MTT assay); type: cell-based; conditions: compounds at 0 h, 24 h, 48 h; 1 μM Aβ1-42 aggregates at 24 h; MTT at 72 h
Experimental: Next, we determined whether these compounds, administered independently or formulated in combination, could protect primary cultures of human neurons against neurotoxic effects of Aβ1-42 aggregates, an in vitro condition relevant to AD pathology. We evaluated both prevention and rescue of neuronal death by NADH, NAD+ and PEITC (FIG. 7). In both experiments, the cultured human neurons were exposed to 1 nM, 10 nM, 100 nM, 1 μM, 10 μM, 20 μM, 40 μM, 50 μM, 75 μM, and 100 μM of each compound, either individually or in equimolar combinations. […] In the prevention experiment, cultures were exposed to fresh compounds every 24 h over the 48 h timeline of this experiment (i.e., 0 h, 24 h, and 48 h) to resemble a pharmacological regimen of once daily dosing. At 24 h, we added 1 μM of Aβ1-42 aggregates to the cell culture media and measured cell viability at 72 h using the MTT assay (Online Method, FIG. 7A). […] In the rescue experiments, primary cultures of human neurons were exposed to 1 μM of Aβ1-42 aggregates at 0 h for a period of 48 h to model existing cellular damage under conditions relevant to AD. After 24 h incubation with Aβ1-42, we added NADH, NAD+, PEITC, NADH/PEITC, and NAD+/PEITC directly to the culture media containing Aβ1-42 and incubated the cultured human neurons for an additional 24 h when cell viability was measured using our MTT assay.
To determine the optimal dosage of the two formulations for neuronal rescue and microglial phagocytosis stimulation, we treated the primary cultures of human neurons and primary cultures of human microglia in the prevention settings respectively with exhaustive combination of individual dosage of 10 μM, 20 μM, 40 μM, 50 μM, 75 μM, and 100 μM.

[3] = tested on: 3xTg AD mice; test: Treatment of 3xTg AD mice: brain Aβ, tau and proteomics; type: in vivo, mouse; conditions: for levels of neurotoxic Aβ42 / ratio of Aβ42 to Aβ40: 3xTg AD mice treated with individual compound; for ratio of p231-tau to total tau: 3xTg mice treated with individual compound
[4] = tested on: primary cultures of human microglia exposed to Aβ1-42 aggregates; test: Aβ1-42 uptake (phagocytosis) by microglia, rescue setting; type: cell-based; conditions: 10 dosages tested
Description: There is considerable interest in microglia-targeted therapies for AD, in part due to the phagocytotic functionality of these cells that can promote neuronal recovery and/or repair. Indeed, phagocytosis of insoluble Aβ by microglia can facilitate CNS clearance of Aβ aggregates and limit formation of amyloid plaques (Ronaldson & Davis, 2020). Indeed, Aβ can bind to receptors at the microglial cell surface, an event that can trigger release of proinflammatory cytokines such as TNF-α and IL-1β, factors that are known to cause neuronal damage (Wang et al. 2015). Additionally, Jiang and colleagues discovered that triggering receptor expressed in myeloid cells 1 (TREM1) can promote Aβ phagocytosis by microglia (Jiang et al. 2016). […] To determine if the natural compounds individually or in combination could promote phagocytosis in microglia, we designed prevention and rescue experiments to measure Aβ1-42 uptake in primary cultures of human microglia via intracellular fluorescence (Online method). […] After 24 h, we added 1 μM of Aβ1-42 aggregates to the treated media and measured cell viability at 72 h using the Aβ uptake assay (Online Method, FIG. 8A). […] Uptake of Aβ1-42 was then measured 24 h later (i.e., at the 48 h experimental time point, FIG. 8B).

[5] = tested on: humanized-Tau (hTau) mice; test: Treatment of humanized-Tau (hTau) mice: brain p231Tau; type: in vivo, mouse
[6] = human subjects, after the consumption of 100 g watercress; cited from earlier work
[7] = rat, in vivo, cited from earlier work
[8] = cited from earlier work

For `O=S(=O)(O)ON=C(Cc1ccccc1)SC1OC(CO)C(O)C(O)C1F` (stereo not drawn) [2-F-2-deoxybenzylglucosinolate], the inhibition of myrosinase [1] is listed as “inhibits the enzyme by trapping one of the glutamic acid residues in the active site, Glu 409”.

In the case of `NC(=O)c1ccc[n+]([C@@H]2O[C@H](COP(=O)([O-])OP(=O)(O)OC[C@H]3O[C@@H](n4cnc5c(N)ncnc54)[C@H](O)[C@@H]3O)[C@@H](O)[C@H]2O)c1` [NAD+, oxidized nicotinamide adenine dinucleotide], the “prevention of neuronal loss as compared to the negative control condition” value [2] is reported as “significantly prevented neuronal loss”, the “levels of neurotoxic Aβ42” value [3] is reported as “significant reduction” and the “ratio of Aβ42 to Aβ40” value [3] is reported as “significantly reduced; also recorded: significant reduction”. For the same compound, the “ratio of p231-tau to total tau” value [3] was “significantly reduced” and the “number of dosages that significantly rescued microglial phagocytosis of Aβ1-42” value [4] was “eight”.

In the case of `NC(=O)C1=CN([C@@H]2O[C@H](COP(=O)(O)OP(=O)(O)OC[C@H]3O[C@@H](n4cnc5c(N)ncnc54)[C@H](O)[C@@H]3O)[C@@H](O)[C@H]2O)C=CC1` [NADH, reduced nicotinamide adenine dinucleotide], the “prevention of neuronal loss as compared to the negative control condition” value [2] is reported as “significantly prevented neuronal loss”, the “levels of neurotoxic Aβ42” value [3] is reported as “significant reduction” and the “ratio of Aβ42 to Aβ40” value [3] is reported as “significantly reduced; also recorded: significant reduction”. For the same compound, the “ratio of p231-tau to total tau” value [3] was “significantly reduced” and the “number of dosages that significantly rescued microglial phagocytosis of Aβ1-42” value [4] was “three”.

In the case of `S=C=NCCc1ccccc1` [PEITC, phenethyl isothiocyanate], the “prevention of neuronal loss as compared to the negative control condition” value [2] is reported as “significantly prevented neuronal loss”, the “level of hyperphosphorylated Tau (p231Tau)” value [5] is reported as “significant reduction” and the “ratio of p231Tau to Tau” value [5] is reported as “significant reduction”. For the same compound, the peak plasma concentration [6] was “about 928.5±250 nM”, the “levels of neurotoxic Aβ42” value [3] was “significant reduction” and the “ratio of Aβ42 to Aβ40” value [3] was “significantly reduced; also recorded: significant reduction”. The “ratio of p231-tau to total tau” value [3] was “significantly reduced”, the bioavailability ([7]; po) was 90-114% and the clearance ([7]; po) was “low”. The protein binding ([7]; po) was “high” and the “bioavailability with repeated dosing” value [7] was “Increased”.

In the case of `O=S(=O)(O)O` [Sulfate], the inhibition of myrosinase [1] is given as “competitive inhibitor”.

For `CN1C(=N)N[C@](C)(c2cc(NC(=O)c3ccc(F)cn3)ccc2F)CS1(=O)=O` [Verubecestat], the “CSF Aβ levels” value ([8]; patients with AD / early-stage AD) is given as “decrease CSF Aβ levels”.

In the case of `C[C@@]1(c2cc(NC(=O)c3ccc(C#N)cn3)ccc2F)C=CSC(N)=N1` [atabecestat], the “cognitive assessment scores in treated patients” value ([8]; phase two clinical trials and long-term safety and tolerability study) is given as “trend of worsening cognitive assessment scores”.

In the case of `CC(C)[C@H](O)C(=O)N[C@@H](C)C(=O)N[C@@H]1C(=O)N(C)CCc2ccccc21` [semagacestat], the “functional or cognitive ability in treated patients” value ([8]; phase three trial) is listed as “lack of efficacy and a worsening of function and cognition”.

For `OC[C@H]1O[C@@](CO)(O[C@H]2O[C@H](CO)[C@@H](O)[C@H](O)[C@H]2O)[C@@H](O)[C@@H]1O` [sucrose, reference compound], the “prevention of neuronal loss as compared to the negative control condition” value [2] was “did not prevent any neuronal death”.
